{
  "source": "patent US7195900B2",
  "about": "“Cloning and expression of D-amino acid oxidase from arthrobacter protophormiae” (Degussa AG, priority 2002, dated 2007)",
  "key": {"[1]": {"target": "T1, recombinant D-AAO (Glutamicibacter protophormiae, UniProt Q7X2D3)", "T1 construct": "The restriction sites NdeI and BamHI were attached to the dao gene by PCR; made in house; host or cells: E. coli BL21(DE3)", "experiment": "Substrate specificity of the recombinant D-AAO (photometric peroxidase/o-dianisidine test)", "assay_type": "biochemical, Arthrobacter protophormiae", "conditions": "for Stereoselectivity: conversion of L-amino acids by D-AAO: L-amino acids as substrate; for Substrate quality (in words): partial substrate spectrum, Table 2; for activity at 10000 µM / activity at 20000 µM: read-out: Relative activity; for activity at 20000 µM: DL-amino acid, concentration increased to 20 mM", "protocol": "(§1) To isolate D-AAO-forming microorganisms, soil samples were plated out on a nutrient medium in which coryneform bacteria can be concentrated: Na propionate 0.20 g; KNO3 0.01 g; KH2PO4 0.10 g; NaCl 0.25 g; MgSO4.7 H2O 0.10 g; CaCO3 0.02g; trace elements; vitamin solution; cycloheximide 0.05 g; if appropriate, agar 20.00 g; final pH 7.0. Microorganisms which grew on this medium were then transinoculated into a complex medium (DSM 65) with the following composition (per 1l): glucose 4.00 g; yeast extract 4.00 g; malt extract 10.00 g; agar 20 g; final pH 7.2. The strains were then multiplied in liquid medium (DSM 65), harvested by centrifugation, broken down, and the cell-free supernatant was obtained by centrifugation (=crude extract). This crude extract was then employed as an enzyme source for the photometric test for D-AAO activity. The test batch contained: 20 μl amino acid solution (100 mM); 80 μl TEA/o-dianisidine buffer; 10 μl peroxidase soln. (1,000 U/ml); 70 μl H2O; 20 μl crude extract. The measurement was carried out at 436 nm; 1 U corresponds to an amount of enzyme which converts 1 μmol of amino acid or 1 μmol of o-dianisidine per min (extinction coefficient ε for o-dianisidine=8.1 mM^−1 cm^−1).\nA partial substrate spectrum was recorded for D-AAO (Table 2).\nThe stereoselectivity of the D-AAO was tested with the amino acids L-leucine, L-methionine and L-lysine. […] Thus, the D-AAO from Arthrobacter protophormiae can be described as highly stereoselective for D-amino acids."}, "[2]": {"target": "T2, partly purified D-AAO (Glutamicibacter protophormiae, UniProt Q7X2D3)", "T2 sequence (Q7X2D3 1-326)": "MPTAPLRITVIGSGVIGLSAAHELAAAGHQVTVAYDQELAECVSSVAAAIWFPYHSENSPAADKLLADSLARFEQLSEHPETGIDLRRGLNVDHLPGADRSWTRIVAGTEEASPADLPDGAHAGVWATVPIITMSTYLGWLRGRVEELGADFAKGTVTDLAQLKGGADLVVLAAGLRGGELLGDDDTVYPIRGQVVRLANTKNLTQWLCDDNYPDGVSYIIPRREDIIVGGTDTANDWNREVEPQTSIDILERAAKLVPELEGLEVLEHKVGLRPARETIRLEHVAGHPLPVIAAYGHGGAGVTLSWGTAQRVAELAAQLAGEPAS", "experiment": "biochemical", "conditions": "read-out: Substrate excess inhibition K1", "protocol": "as §1"}, "[3]": {"substrate": "CSCC[C@@H](N)C(=O)O", "experiment": "purified protein, by the assay type", "conditions": "other: partly purified D-AAO"}, "[4]": {"experiment": "Isoelectric focussing of D-AAO", "assay_type": "physicochemical", "conditions": "experimentally determined, polyacrylamide gels pH 4–6", "protocol": "A molecular mass for a monomer of the D-AAO of 40 kDA was determined by means of SDS gel electrophoresis. […] The calculated molecular mass of the monomer was 34.6 kDa without and 35.4 kDa with FAD. These values indicate that the enzyme has a dimeric structure. Isoelectric focussing was performed using precast Serva polyacrylamide gels with a narrow pH range (pH 4–6). The experimentally determined pI was 4.4."}, "[5]": {"target": "T3, D-AAO (Glutamicibacter protophormiae, UniProt Q7X2D3)", "T3 sequence (Q7X2D3 whole entry, looked up)": "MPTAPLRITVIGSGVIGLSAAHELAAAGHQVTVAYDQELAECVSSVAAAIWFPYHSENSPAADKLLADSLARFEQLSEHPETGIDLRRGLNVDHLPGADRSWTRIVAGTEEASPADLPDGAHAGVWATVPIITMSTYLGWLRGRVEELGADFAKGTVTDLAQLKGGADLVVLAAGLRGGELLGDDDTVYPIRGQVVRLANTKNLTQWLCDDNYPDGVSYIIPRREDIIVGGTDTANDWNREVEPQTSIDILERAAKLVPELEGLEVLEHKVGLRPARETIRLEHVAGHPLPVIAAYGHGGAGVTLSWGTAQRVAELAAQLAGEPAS", "experiment": "Influence of pH on D-AAO activity", "assay_type": "biochemical, Arthrobacter protophormiae", "conditions": "three substrates (lysine, phenylalanine, methionine), 10 mM; three 80 mM buffers", "protocol": "The enzyme activity was measured with three different substrates in the following 80 mM buffers: ♦ citric acid-sodium phosphate, pH 5–7; ▪ TEA/HCl, pH 7–8.5; ▴ glycine/NaOH, pH 8.5–11. Each D-amino acid tested was employed in a final concentration of 10 mM.\nThe influence of pH on the activity of the D-AAO with respect to the substrates […] was investigated in three different buffers: citric acid-sodium phosphate […]; TEA/HCl pH 7.0–8.5; and glycine/NaOH pH 8.5–11). The optimum pH for all three substrates was in the weakly basic range, between pH 7.5–8.5 (FIG. 2)."}, "[6]": {"experiment": "D-AAO activity assay (specific activity of enzyme preparations)", "assay_type": "biochemical", "protocol": "as §1\nRecombinant D-AAO was purified to homogeneity using a two-step procedure (Table 1). E. coli BL21(DE3) carrying pApdao was disrupted by ultrasonification and cell debris was removed by centrifugation. The cleared supernatant was loaded onto a Q-Sepharose FF column (h 10 cm×Ø 2.6 cm) (Amersham Bioscience), which was equilibrated with 10 mM potassium phosphate buffer pH 7.0 and run at a flow rate of 2 ml/min. The column was washed with 10 mM potassium phosphate buffer pH 7.0 containing 0.2 M NaCl and the D-AAO was eluted by increasing the salt concentration up to 0.35 M. Active fractions were pooled and loaded onto a column, which was packed with ceramic MacroPrep hydroxyapatite, type I (h 8.3 cm×Ø 1.6 cm) (Bio-Rad). The column was equilibrated with 10 mM potassium phosphate buffer pH 6.8 containing 150 mM NaCl and the flow rate was 2 ml/min. The D-AAO was detected in the flow-through."}},
  "data": [
    {"molecule": "NCCCC[C@H](N)C(=O)O", "note": "[L-lysine]", "values": [
      {"measurement": "Stereoselectivity: conversion of L-amino acids by D-AAO", "setting": "[1]", "result": "None of these compounds were converted"}
    ]},
    {"molecule": "CC(C)C[C@H](N)C(=O)O", "note": "[L-leucine]", "values": [
      {"measurement": "Stereoselectivity: conversion of L-amino acids by D-AAO", "setting": "[1]", "result": "None of these compounds were converted"}
    ]},
    {"molecule": "CSCC[C@@H](N)C(=O)O", "note": "[D-Methionine]", "values": [
      {"measurement": "Substrate quality (in words)", "setting": "[1]", "result": "best substrates"},
      {"measurement": "activity at 10000 µM", "setting": "[1]", "result": 100, "unit": "%"}
    ]},
    {"molecule": "CNC(CC(C)C)C(=O)O", "note": "(racemic) [N-Methyl-DL-leucine]", "values": [
      {"measurement": "activity at 20000 µM", "setting": "[1]", "result": 2.1, "unit": "%"}
    ]},
    {"molecule": "N[C@H](Cc1ccccc1)C(=O)O", "note": "[D-Phenylalanine]", "values": [
      {"measurement": "Ki", "setting": "[2]", "result": 55, "unit": "mM"},
      {"measurement": "Substrate quality (in words)", "setting": "[1]", "result": "effective in converting"},
      {"measurement": "activity at 10000 µM", "setting": "[1]", "result": 54, "unit": "%"}
    ]},
    {"molecule": "C[C@@H](N)C(=O)O", "note": "[D-Alanine]", "values": [
      {"measurement": "activity at 10000 µM", "setting": "[1]", "result": 0.26, "unit": "%"}
    ]},
    {"molecule": "CSCC[C@H](N)C(=O)O", "note": "[L-methionine]", "values": [
      {"measurement": "Stereoselectivity: conversion of L-amino acids by D-AAO", "setting": "[1]", "result": "None of these compounds were converted"}
    ]},
    {"molecule": "COCC(N)C(=O)O", "note": "(racemic) [O-Methyl-DL-serine]", "values": [
      {"measurement": "activity at 20000 µM", "setting": "[1]", "result": 0.33, "unit": "%"}
    ]},
    {"molecule": "N[C@H](Cc1c[nH]cn1)C(=O)O", "note": "[D-Histidine]", "values": [
      {"measurement": "activity at 10000 µM", "setting": "[1]", "result": 5.9, "unit": "%"}
    ]},
    {"molecule": "N=C(N)NCCC[C@@H](N)C(=O)O", "note": "[D-Arginine]", "values": [
      {"measurement": "Substrate quality (in words)", "setting": "[1]", "result": "effective in converting"},
      {"measurement": "activity at 10000 µM", "setting": "[1]", "result": 80, "unit": "%"}
    ]},
    {"molecule": "NC(Cc1ccc(F)cc1)C(=O)O", "note": "(racemic) [4-Fluoro-DL-phenylalanine]", "values": [
      {"measurement": "activity at 20000 µM", "setting": "[1]", "result": 81, "unit": "%"}
    ]},
    {"molecule": "O=C(O)[C@H]1CCCN1", "note": "[D-Proline]", "values": [
      {"measurement": "activity at 10000 µM", "setting": "[1]", "result": 0.25, "unit": "%"}
    ]},
    {"molecule": "NCCCC[C@@H](N)C(=O)O", "note": "[D-Lysine]", "values": [
      {"measurement": "Substrate quality (in words)", "setting": "[1]", "result": "best substrates"},
      {"measurement": "activity at 10000 µM", "setting": "[1]", "result": 99, "unit": "%"}
    ]},
    {"molecule": "CC(C)[C@@H](N)C(=O)O", "note": "[D-Valine]", "values": [
      {"measurement": "activity at 10000 µM", "setting": "[1]", "result": 0.35, "unit": "%"}
    ]},
    {"molecule": "CC(C)C[C@@H](N)C(=O)O", "note": "[D-Leucine]", "values": [
      {"measurement": "activity at 10000 µM", "setting": "[1]", "result": 12, "unit": "%"}
    ]},
    {"molecule": "CC(C)(C)C(N)C(=O)O", "note": "(racemic) [DL-tert-Leucine]", "values": [
      {"measurement": "activity at 20000 µM", "setting": "[1]", "result": 0.12, "unit": "%"}
    ]},
    {"molecule": "CC[C@H](C)[C@@H](N)C(=O)O", "note": "[D-allo-Isoleucine]", "values": [
      {"measurement": "activity at 10000 µM", "setting": "[1]", "result": 1, "unit": "%"}
    ]},
    {"molecule": "partly purified D-AAO (Glutamicibacter protophormiae) (protein) MPTAPLRITVIGSGVIGLSAAHELAAAGHQVTVAYDQELAECVSSVAAAIWFPYHSENSPAADKLLADSLARFEQLSEHPETGIDLRRGLNVDHLPGADRSWTRIVAGTEEASPADLPDGAHAGVWATVPIITMSTYLGWLRGRVEELGADFAKGTVTDLAQLKGGADLVVLAAGLRGGELLGDDDTVYPIRGQVVRLANTKNLTQWLCDDNYPDGVSYIIPRREDIIVGGTDTANDWNREVEPQTSIDILERAAKLVPELEGLEVLEHKVGLRPARETIRLEHVAGHPLPVIAAYGHGGAGVTLSWGTAQRVAELAAQLAGEPAS", "values": [
      {"measurement": "Km", "setting": "[3]", "result": 900, "unit": "µM"},
      {"measurement": "pI", "setting": "[4]", "result": 4.4},
      {"measurement": "Optimum pH", "setting": "[5]", "result": "7.5–8.5 pH"},
      {"measurement": "Specific activity", "setting": "[6]; after Hydroxyapatite (second chromatography), 10 mM D-Met, pH 7.6, 30° C.", "result": 180, "unit": "U/mg"},
      {"measurement": "Specific activity", "setting": "[6]; after Q-Sepharose, 10 mM D-Met, pH 7.6, 30° C.", "result": 80, "unit": "U/mg"},
      {"measurement": "Specific activity", "setting": "[6]; after high cell density fermentation of E. coli BL21(DE3) carrying pE1D", "result": 15, "unit": "U mg^−1"},
      {"measurement": "Specific activity", "setting": "[6]; crude extract, E. coli BL21(DE3), 3 g cells, 10 mM D-Met, pH 7.6, 30° C.", "result": 30, "unit": "U/mg"},
      {"measurement": "Specific activity in the crude extracts of recombinant cells", "setting": "[6]; crude extracts of recombinant cells", "result": "15–30 U mg^−1"},
      {"measurement": "Specific D-AAO activity in the crude extract", "setting": "[6]; shaking flask, E. coli BL21(DE3) pE1D, 100 μM IPTG, 4 h at 30° C.", "result": 30, "unit": "U/mg"}
    ]}
  ]
}
